{"source": "patent US12139505B2", "about": "“Compositions useful in therapy of autophagy-related pathologies, and methods of making and using the same” (The University of Toledo, priority 2017, dated 2024)", "key": {"[1]": {"system": "RG2 glioma cells", "assay": "Autophagic flux assay (LC3-II western blot in the presence of bafilomycin-A1)", "type": "cell-based, rat", "conditions": "RG2 glioma cells, 4 h, 50 nM bafilomycin-A1, western blot", "experimental": "In the assay, cells are treated with subtoxic concentrations of bafilomycin-A, which blocks lysosomal acidification. This prevents autophagosome fusion with lysosomes at a specific point. For example, RG2 glioma cells (or other cell types) are “clamped” by addition of 10-50 nM bafilomycin-A1 to block autophagosome fusion with lysosomes and eliminate autophagy clearance. Then, autophagy flux is measured by the conjugation of phosphatidylethanolamine to LC3-I, yielding an electrophoretically separable LC3-II by western blot. LC3-II acts as a link between nascent autophagosomes and cargo being directed into these structures. An autophagy enhancer will increase LC3-II in the presence of bafilomycin, whereas a compound that inhibits autophagy completion will not do so. Thus, the L3A-I to LC3A-II conversion in the presence of bafilomycin-A1 constitutes a valid measure of autophagy.\nFor the assays, rat glioma cells RG2 (ATCC® CRL-2433™; RG2 cells) were cultured. […] The cells were then incubated for an additional 4 h. At termination, the cell culture medium was removed, cells were washed with PBS and lysed on ice in Pierce RIPA buffer containing protease and phosphatase inhibitors.\nWestern Blotting: The proteins were electrophoresed and wet-blotted to polyvinylidine difluoride membranes, blocked overnight in 4% bovine serum albumin, and developed using antibodies obtained from Cell Signaling Technology (L3A: cat #. 4599; ULK1: cat #. 8054, ULK1(p757): cat #. 6880).\nRG2 glioma cells were treated without drug (first column in FIG. 8A) or 4 h with 50 nM bafilomycin-A1 (BAF), the indicated concentration of LK, or the phosphonate analog 2-isopropyl-LK-3-phosphonate. The western blot results are shown in FIG. 8A, where the lower band corresponds to LC3-II. An increase in the intensity of this band in the presence of bafilomycin-A1 indicates increased autophagic flux. […] Similar results are shown in FIG. 9 with respect to the LK-P compound 2-butyl-lanthionine-phosphonate (also referred to as 2-n-butyl-lanthionine-phosphonate or 2-n-butyl-LK-P).\nRG2 glioma cells (American Tissue Type Collection, ATTC, Rockville MD USA) were treated for 4 h with 50 nM bafilomycin-A1 (previously dissolved to 1000× final concentration in dimethylsulfoxide). Thirty minutes after addition of bafilomycin, cells were treated with test agents at 100× final concentration. Cells were lysed in RIPA buffer containing protease and phosphatase inhibitors. Protein concentration was assayed and normalized to constant values (typically 5-7 mg/mL). Proteins were electrophoresed across 4-20% polyacrylamide gels and wet blotted onto polyvinylidine difluoride (PVDF) membranes. Proteins were blotted with commercially available antibodies against LC3."}, "[2]": {"assay": "Stability of the isolated solid to high vacuum", "type": "physicochemical", "conditions": "isolated white solid, at least overnight"}, "[3]": {"system": "HeLa cells", "assay": "Rescue of HeLa cells from TNFa toxicity, tetrazolium reduction assay", "type": "cell-based", "conditions": "20 h 10 ng/mL TNFa, 10 micromolar cycloheximide", "experimental": "HeLa cells were treated 20 h with 10 ng/mL recombinant human TNFa in the presence of 10 micromolar cycloheximide and viability measured by tetrazolium reduction assay."}, "[4]": {"system": "ULK1 system in RG2 cells", "assay": "ULK1/ULK1(p757) quantitative autophagy stimulation assay", "type": "cell-based, rat", "conditions": "24 h in RG2 cells; read-out: EC50 on the ULK1 system (ULK1 increase and ULK1(p757) decrease)", "from_the_text": "For validation purposes, a second, quantitative autophagy stimulation assay was utilized."}, "[5]": {"system": "SOD1^G93A mouse", "conditions": "cited from earlier work"}, "[6]": {"system": "3×Tg-AD mouse", "conditions": "cited from earlier work"}, "[7]": {"system": "pMCAO", "conditions": "after pMCAO; cited from earlier work"}, "[8]": {"system": "C6 glioma tumor", "conditions": "C6 glioma xenograft into rat cortices; cited from earlier work"}, "[9]": {"conditions": "measurement of brain LKE levels and animal studies; cited from earlier work"}, "[10]": {"system": "people with ALS", "conditions": "cited from earlier work"}}, "note": "Entries after “also recorded” stand apart in the source; their conditions may differ.", "data": [{"molecule": "CCCCC1=C(P(=O)(O)O)N[C@H](C(=O)O)CS1", "values": [{"measurement": "autophagic flux / autophagy stimulation (LC3-II band in the presence of bafilomycin-A1)", "setting": "[1]", "result": "comparable activity; also recorded: stimulate autophagy to varying degrees; also recorded: greater autophagy activation effect than LKE"}, {"measurement": "autophagic flux / autophagy stimulation (LC3-II band in the presence of bafilomycin-A1)", "setting": "[1]; listed as 2-butyl-LK-P", "result": "more effective at inducing autophagic flux than, inter alia, LK-E"}, {"measurement": "stability to high vacuum pressures", "setting": "[2]", "result": "stable to high vacuum pressures at least overnight without visual or spectral decomposition"}]}, {"molecule": "CC(C)C1=C(P(=O)(O)O)NCCS1", "note": "[2-isopropyl-AECK-P]", "values": [{"measurement": "autophagic flux / autophagy stimulation (LC3-II band in the presence of bafilomycin-A1)", "setting": "[1]", "result": "greater autophagy activation effect than LKE"}, {"measurement": "autophagic flux / autophagy stimulation (LC3-II band in the presence of bafilomycin-A1)", "setting": "[1]; listed as 2-isopropyl AECK-P", "result": "comparable activity"}]}, {"molecule": "CC(C)C1=C(P(=O)(O)O)N[C@H](C(=O)O)CS1", "note": "[2-isopropyl-LK-P, 2-isopropyl lanthionine ketimine phosphonate]", "values": [{"measurement": "autophagic flux / autophagy stimulation (LC3-II band in the presence of bafilomycin-A1)", "setting": "[1]", "result": "stimulates autophagy in RG2 cells at low micromolar concentrations; also recorded: much more potent stimulator of autophagy than LK; also recorded: comparable activity; also recorded: stimulate autophagy to varying degrees; also recorded: increase autophagic flux"}, {"measurement": "autophagic flux / autophagy stimulation (LC3-II band in the presence of bafilomycin-A1)", "setting": "[1]; listed as 2-isopropyl lanthionine-ketimine-phosphonate", "result": "clearly was more potent at 10 mM than was LK"}, {"measurement": "autophagic flux / autophagy stimulation (LC3-II band in the presence of bafilomycin-A1)", "setting": "[1]; listed as 2-isopropyl-lanthionine-ketimine-3-phosphonate", "result": "clearly more potent at 10 μM than LK was"}, {"measurement": "cell death stemming from TNFa treatment", "setting": "[3]", "result": "reduced cell death"}, {"measurement": "EC50", "setting": "[3]; Homo sapiens, HeLa, compound 1 h before, read-out: EC50% for reduction of cell death from TNFa", "result": "~10", "unit": "mM"}, {"measurement": "stability to high vacuum pressures", "setting": "[2]", "result": "stable to high vacuum pressures at least overnight without visual or spectral decomposition"}]}, {"molecule": "CCOC(=O)[C@@H]1CSC(CC)=C(C(=O)O)N1", "note": "[Compound 2-ethyl-LKE]", "values": [{"measurement": "autophagic flux / autophagy stimulation (LC3-II band in the presence of bafilomycin-A1)", "setting": "[1]", "result": "stimulate autophagy in RG2 cells"}]}, {"molecule": "O=C(O)C1=CSC[C@@H](C(=O)O)N1", "note": "[LK, (5R)-3,5,-dicarboxy-1-thia-4-aza-2-cyclohexene, reference compound]", "values": [{"measurement": "autophagic flux / autophagy stimulation (LC3-II band in the presence of bafilomycin-A1)", "setting": "[1]", "result": "increase autophagic flux"}]}, {"molecule": "CCOC(=O)C1=CSCC(C(=O)O)N1", "note": "(stereo not shown) [LKE, lanthionine ketenamine ethyl ester]", "values": [{"measurement": "autophagic flux / autophagy stimulation (LC3-II band in the presence of bafilomycin-A1)", "setting": "[1]", "result": "stimulate autophagy to varying degrees"}, {"measurement": "EC50", "setting": "[4]", "result": "~50", "unit": "nM"}, {"measurement": "lifespan and motor function", "setting": "[5]", "result": "increases lifespan and slows decline of motor function"}, {"measurement": "amyloid burden, phospho-tau, microglial activation, cognitive decline", "setting": "[6]", "result": "decreases amyloid burden inside neurons and in plaques, decreases phospho-tau accumulation, decreases microglial activation, and slows cognitive decline"}, {"measurement": "infarct volume and functional recovery", "setting": "[7]", "result": "decreases infarct volume and improves functional recovery"}, {"measurement": "tumor growth", "setting": "[8]", "result": "slows growth of C6 glioma tumor"}, {"measurement": "βββ (blood brain barrier) penetrability", "setting": "[9]", "result": "good βββ penetrability"}]}, {"molecule": "Nc1nc2ccc(OC(F)(F)F)cc2s1", "note": "[Riluzole]", "values": [{"measurement": "prolongation of life", "setting": "[10]; ALS patients", "result": "2-3 months"}]}, {"molecule": "CC1=NN(c2ccccc2)C(=O)C1", "note": "[edaravone]", "values": [{"measurement": "clinical decline in daily functioning", "setting": "[10]; people with ALS", "result": "slows the clinical decline in daily functioning"}]}]}
